Experiment [1] is described as follows: (§1) Inhibition of human G-quadruplex [TTAGGG]4 DNA templet extension assessed as increase in ligand-induced polymerase stop products by Taq DNA polymerase stop assay.
For experiment [2], the species on record is Homo sapiens. As to the kind of experiment: Induction of G-quadruplex structure formation in human telomeric d[5'G3(T2AG3]-3' DNA assessed as major positive band at 290 nm at 1 mole ligand concentration by CD spectroscopy.
The species named for experiment [3] is Homo sapiens. As to the kind of experiment: Stabilization of human telomeric d[5'G3(T2AG3]-3' assessed as change in melting temperature at 25 uM.
Experiment [4] deals with Telomerase reverse transcriptase (Homo sapiens, UniProt O14746). The experiment can be described thus: Inhibition of human telomerase assessed as unincorporated [alpha32P]dGTP.
Chain of Telomerase reverse transcriptase (O14746 whole entry): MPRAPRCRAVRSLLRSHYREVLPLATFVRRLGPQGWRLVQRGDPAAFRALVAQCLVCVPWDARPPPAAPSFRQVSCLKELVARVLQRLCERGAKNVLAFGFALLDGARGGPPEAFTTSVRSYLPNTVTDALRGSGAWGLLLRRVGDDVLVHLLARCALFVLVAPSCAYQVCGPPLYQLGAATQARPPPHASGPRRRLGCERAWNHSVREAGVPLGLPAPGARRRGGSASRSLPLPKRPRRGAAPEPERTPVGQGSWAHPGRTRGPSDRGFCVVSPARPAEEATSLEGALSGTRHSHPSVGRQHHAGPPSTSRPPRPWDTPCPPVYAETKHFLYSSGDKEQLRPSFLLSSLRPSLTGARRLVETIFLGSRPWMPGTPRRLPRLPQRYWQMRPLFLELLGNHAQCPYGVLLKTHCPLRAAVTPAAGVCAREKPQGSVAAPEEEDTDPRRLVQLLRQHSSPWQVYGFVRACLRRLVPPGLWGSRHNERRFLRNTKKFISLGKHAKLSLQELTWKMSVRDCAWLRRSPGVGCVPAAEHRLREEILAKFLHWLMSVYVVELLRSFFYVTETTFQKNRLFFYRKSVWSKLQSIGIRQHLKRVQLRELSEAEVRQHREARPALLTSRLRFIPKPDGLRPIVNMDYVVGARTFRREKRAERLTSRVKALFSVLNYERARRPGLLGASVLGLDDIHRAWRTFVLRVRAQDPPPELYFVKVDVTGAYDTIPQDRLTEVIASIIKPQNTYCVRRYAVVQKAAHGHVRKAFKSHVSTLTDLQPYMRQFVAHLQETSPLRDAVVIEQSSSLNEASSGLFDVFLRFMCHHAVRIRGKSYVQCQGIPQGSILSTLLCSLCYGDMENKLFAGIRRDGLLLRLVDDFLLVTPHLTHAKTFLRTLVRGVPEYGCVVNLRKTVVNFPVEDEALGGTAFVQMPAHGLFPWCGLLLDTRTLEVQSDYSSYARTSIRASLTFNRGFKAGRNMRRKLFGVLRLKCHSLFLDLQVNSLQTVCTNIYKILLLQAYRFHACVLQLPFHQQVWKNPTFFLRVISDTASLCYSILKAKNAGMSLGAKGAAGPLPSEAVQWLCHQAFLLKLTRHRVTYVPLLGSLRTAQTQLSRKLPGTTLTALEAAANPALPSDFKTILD
Experiment [5] addresses T1, Protection of telomeres protein 1 (Homo sapiens, UniProt Q9NUX5).
T1 sequence (Q9NUX5 whole entry): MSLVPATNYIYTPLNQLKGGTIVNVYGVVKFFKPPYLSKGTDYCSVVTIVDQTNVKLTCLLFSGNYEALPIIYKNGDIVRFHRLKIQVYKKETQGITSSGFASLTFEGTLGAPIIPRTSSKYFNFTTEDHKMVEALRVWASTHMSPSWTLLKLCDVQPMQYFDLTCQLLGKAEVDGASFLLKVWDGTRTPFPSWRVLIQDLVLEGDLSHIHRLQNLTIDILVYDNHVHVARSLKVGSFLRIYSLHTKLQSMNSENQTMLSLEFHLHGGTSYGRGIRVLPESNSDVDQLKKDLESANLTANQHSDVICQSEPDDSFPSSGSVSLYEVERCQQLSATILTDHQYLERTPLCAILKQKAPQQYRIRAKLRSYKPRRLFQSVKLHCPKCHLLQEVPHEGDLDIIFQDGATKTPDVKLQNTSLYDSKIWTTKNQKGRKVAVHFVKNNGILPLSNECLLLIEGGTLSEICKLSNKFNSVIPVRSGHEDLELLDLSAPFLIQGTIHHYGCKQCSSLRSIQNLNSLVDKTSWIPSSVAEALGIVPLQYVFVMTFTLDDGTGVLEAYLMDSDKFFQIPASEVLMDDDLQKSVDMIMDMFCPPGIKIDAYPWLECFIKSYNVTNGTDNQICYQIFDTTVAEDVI
As to the kind of experiment: Inhibition of human 35S-labeled Pot1 binding to human telomeric DNA.

Experiment [6] is described as follows: Inhibition of non G-quadruplex [TTAGAG]4 DNA templet extension assessed as ligand-induced polymerase stop products by Taq DNA polymerase stop assay.
The species named for experiment [7] is Homo sapiens. Described as §1.
Experiment [8] is filed under the species Homo sapiens. As to the kind of experiment: Induction of G-quadruplex structure formation in human telomeric d[5'G3(T2AG3]-3' DNA assessed as major positive band at 295 nm at 2 mole ligand concentration by CD spectroscopy.
For experiment [9], the species on record is Homo sapiens. The experiment can be described thus: Binding affinity to human telomeric d[5'G3(T2AG3]-3' DNA quadruplex assessed as major positive band at 292 nm at 2:1 drug to DNA ratio.
The species named for experiment [10] is Homo sapiens. As to the kind of experiment: Binding affinity to human telomeric d[5'G3(T2AG3]-3' DNA quadruplex assessed as major positive band at 292 nm at 1:1 drug to DNA ratio.
Experiment [11] is filed under the species Homo sapiens. The experiment can be described thus: Binding affinity to human telomeric d[5'G3(T2AG3]-3' DNA quadruplex assessed as major positive band at 292 nm at >1:1 drug to DNA ratio.

Activity calls are given as the source filed them. The rule behind the calls is not given here.

These results are taken from ChEMBL document CHEMBL1152753, “BRACO19 analog dimers with improved inhibition of telomerase and hPot 1” (Bioorg Med Chem, 2009).

The term EC50 denotes the concentration at which the effect is half-maximal. In general, ΔTm refers to the shift of the melting midpoint relative to a reference. Usually IC50 stands for the midpoint of a concentration-inhibition curve. Turning to `O=C(CCN1CCCC1)Nc1ccc2c(NCCCCCCNc3c4ccc(NC(=O)CCN5CCCC5)cc4nc4cc(NC(=O)CCN5CCCC5)ccc34)c3ccc(NC(=O)CCN4CCCC4)cc3nc2c1`, the EC50 was found to be 0.85 µM in [1] and 4.5 µM in [6]. Also, the result in the experiment filed under Homo sapiens [2] was Active. Moreover, the ΔTm in the experiment listed under Homo sapiens [3] came to 23 °C. The figures for the IC50 in experiment [4] and in experiment [5] were 4 µM and 17 µM, respectively.

For the compound `O=C(CCN1CCCC1)Nc1ccc2c(NCNCCNCNc3c4ccc(NC(=O)CCN5CCCC5)cc4nc4cc(NC(=O)CCN5CCCC5)ccc34)c3ccc(NC(=O)CCN4CCCC4)cc3nc2c1`, the EC50 was determined as 0.071 µM in experiment [1] and 0.36 µM in experiment [6]. The result in the experiment filed under Homo sapiens [2] was Active. In addition, in the experiment filed under Homo sapiens [3], the ΔTm was 28 °C. The IC50 in experiment [4] is 7.5 µM; in experiment [5], 11 µM.

Consider `CN(C)c1ccc(Nc2c3ccc(NC(=O)CCN4CCCC4)cc3nc3cc(NC(=O)CCN4CCCC4)ccc23)cc1`, for which the EC50 in [1] was 1.8 µM; in experiment [6], 19.1 µM. Also, the Activity result (in the experiment filed under Homo sapiens [7]; in experiment [6]) was “Dose-dependent effect” in each case. Moreover, the result in the experiment listed under Homo sapiens [8] and in the experiment listed under Homo sapiens [9] was Active. For the same compound, the ΔTm in the experiment listed under Homo sapiens [3] amounted to 18 °C. The figures for the IC50 in experiment [4] and in experiment [5] were 5.4 µM and 63 µM, respectively.

Take `O=C(CCN1CCCC1)Nc1ccc2c(NCOCCOCNc3c4ccc(NC(=O)CCN5CCCC5)cc4nc4cc(NC(=O)CCN5CCCC5)ccc34)c3ccc(NC(=O)CCN4CCCC4)cc3nc2c1`: the EC50 in experiment [1] was found to be 0.2 µM; in [6], 3.9 µM. The Activity result (in the experiment listed under Homo sapiens [7]; in experiment [6]) was “Dose-dependent effect” each time. In addition, the outcome in the experiment filed under Homo sapiens [2] and in the experiment filed under Homo sapiens [10] was Active. The result in the experiment listed under Homo sapiens [11] was inactive. Moreover, in the experiment filed under Homo sapiens [3], the ΔTm was determined as 20 °C. Moreover, the IC50 in experiment [4] turned out to be 9 µM; in [5] it was 45 µM.
